Data reported in patent US8883782B2, “Spiro-tetracyclic ring compounds as beta-secretase modulators and methods of use” (Amgen Inc., priority 2010, dated 2014).

Legend:
[1] = biological target: Beta Secretase enzyme (BACE) (Homo sapiens, UniProt P56817); experiment: In vitro enzymatic BACE FRET (fluorescence resonance energy transfer) assay; type: biochemical; conditions: average IC50, enzyme assay; read-out: BACE 1 FRET assay
In short: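 Buffer 0.05 M acetate pH 4.2, 10% DMSO final, 100 uM genapol (sub-CMC); start with 50 nM FRET substrate; 1 h incubation; Tris stop; fluorescence read.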

[2] = system: Aβ40 in conditioned medium of cells stably expressing Amyloid Precursor Protein (APP); experiment: In vitro BACE cell-based assay (Aβ40 in conditioned medium, sandwich ELISA); conditions: Homo sapiens, HEK293, average IC50, HEK cells; read-out: HEK cell assay
In short: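 The sandwich ELISA pairs pAb40 capture (3 h, 4 °C) with 6E10 detection (2 h, 4 °C) and a streptavidin-europium TRF read-out. Supernatants come from APP-expressing cells grown in 10% FBS DMEM.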

Sequence of Beta Secretase enzyme (BACE) (P56817 46-501, species assumed): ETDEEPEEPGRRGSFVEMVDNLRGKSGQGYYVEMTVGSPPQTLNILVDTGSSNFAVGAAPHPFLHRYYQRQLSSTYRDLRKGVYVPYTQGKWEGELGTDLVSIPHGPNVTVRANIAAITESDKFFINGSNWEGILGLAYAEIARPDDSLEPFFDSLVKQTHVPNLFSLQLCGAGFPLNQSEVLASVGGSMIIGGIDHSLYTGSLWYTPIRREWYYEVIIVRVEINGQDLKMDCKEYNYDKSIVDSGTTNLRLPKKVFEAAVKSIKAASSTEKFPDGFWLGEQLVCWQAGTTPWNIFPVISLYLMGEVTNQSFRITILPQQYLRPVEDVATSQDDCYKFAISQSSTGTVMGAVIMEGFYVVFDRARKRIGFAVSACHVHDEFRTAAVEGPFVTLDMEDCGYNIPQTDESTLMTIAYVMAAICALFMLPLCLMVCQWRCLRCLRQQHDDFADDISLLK

| SMILES | IC50 [1] [nM] | IC50 [2] [nM] |
| --- | --- | --- |
| COc1ncc(-c2ccc3c(c2)[C@@]2(COC(N)=N2)c2cc(/C=C/C(C)(C)C)ncc2O3)cn1 [Example 406, (5S)-3-((1E)-3,3-dimethyl-1-buten-1-yl)-7-(2-methoxy-5-pyrimidinyl)spiro[chromeno[2,3-c]pyridine-5,4′-[1,3]oxazol]-2′-amine] | 183 | 712 |
| COc1ncc(F)cc1-c1ccc2c(c1)[C@@]1(COC(N)=N1)c1cc(/C=C/C(C)(C)C)ncc1O2 [Example 407, (5S)-3-((1E)-3,3-dimethyl-1-buten-1-yl)-7-(5-fluoro-2-methoxy-3-pyridinyl)spiro[chromeno[2,3-c]pyridine-5,4′-[1,3]oxazol]-2′-amine] | 5.3 | 158 |
| COc1ncccc1-c1ccc2c(c1)[C@@]1(COC(N)=N1)c1cc(/C=C/C(C)(C)C)ncc1O2 [Example 408, (5S)-3-((1E)-3,3-dimethyl-1-buten-1-yl)-7-(2-methoxy-3-pyridinyl)spiro[chromeno[2,3-c]pyridine-5,4′-[1,3]oxazol]-2′-amine] | 20.1 | 311 |
| COC(C)(C)CNc1cc2c(cn1)Oc1ccc(-c3cccnc3)cc1[C@@]21COC(N)=N1 [Example 409, (5S)-N~3~-(2-methoxy-2-methylpropyl)-7-(3-pyridinyl)spiro[chromeno[2,3-c]pyridine-5,4′-[1,3]oxazole]-2′,3-diamine] | 6.6 | 17.8 |
| N#CC1CN(c2cc3c(cn2)Oc2ccc(-c4cccnc4)cc2[C@@]32COC(N)=N2)C1 [Example 410, 1-((5S)-2′-amino-7-(3-pyridinyl)spiro[chromeno[2,3-c]pyridine-5,4′-[1,3]oxazol]-3-yl)-3-azetidinecarbonitrile] | 28.7 | 128 |
| NC1=N[C@@]2(CO1)c1cc(-c3cccnc3)ccc1Oc1cnc(N3CC[C@H](F)C3)cc12 [Example 412, (5S)-3-((3S)-3-fluoro-1-pyrrolidinyl)-7-(3-pyridinyl)spiro[chromeno[2,3-c]pyridine-5,4′-[1,3]oxazol]-2′-amine] | 7.6 | 20.8 |
| COc1ncc(-c2ccc3c(c2)[C@@]2(COC(N)=N2)c2cc(N4CCC(F)(F)C4)ncc2O3)cn1 [Example 415, (5S)-3-(3,3-difluoro-1-pyrrolidinyl)-7-(2-methoxy-5-pyrimidinyl)spiro[chromeno[2,3-c]pyridine-5,4′-[1,3]oxazol]-2′-amine] | 81.7 | 367 |
| COc1ncc(-c2ccc3c(c2)[C@@]2(COC(N)=N2)c2cc(N4CC[C@@H](F)C4)ncc2O3)cn1 [Example 417, (5S)-3-((3R)-3-fluoro-1-pyrrolidinyl)-7-(2-methoxy-5-pyrimidinyl)spiro[chromeno[2,3-c]pyridine-5,4′-[1,3]oxazol]-2′-amine] | 84.5 | 336 |
| COC(C)(C)CNc1cc2c(cn1)Oc1ccc(-c3cccnc3F)cc1[C@@]21COC(N)=N1 [Example 418, (5S)-7-(2-fluoro-3-pyridinyl)-N~3~-(2-methoxy-2-methylpropyl)spiro[chromeno[2,3-c]pyridine-5,4′-[1,3]oxazole]-2′,3-diamine] | 3 | 14.1 |
| COc1ncc(-c2ccc3c(c2)[C@@]2(COC(N)=N2)c2cc(N4CCC(F)(F)CC4)ncc2O3)cn1 [Example 419, (5S)-3-(4,4-difluoro-1-piperidinyl)-7-(2-methoxy-5-pyrimidinyl)spiro[chromeno[2,3-c]pyridine-5,4′-[1,3]oxazol]-2′-amine] | 172 | 602 |
| NC1=N[C@@]2(CO1)c1cc(-c3ccc(N4CCC(F)(F)C4)nc3)ccc1Oc1cnc(N3CCC(F)(F)C3)cc12 [Example 423, (5S)-3-(3,3-difluoro-1-pyrrolidinyl)-7-(6-(3,3-difluoro-1-pyrrolidinyl)-3-pyridinyl)spiro[chromeno[2,3-c]pyridine-5,4′-[1,3]oxazol]-2′-amine] | 458 | 402 |
| N#Cc1cccc(-c2ccc3c(c2)[C@@]2(COC(N)=N2)c2cc(N4CC[C@H](F)C4)ncc2O3)c1 [Example 426, 3-((5S)-2′-amino-3-((3S)-3-fluoro-1-pyrrolidinyl)spiro[chromeno[2,3-c]pyridine-5,4′-[1,3]oxazol]-7-yl)benzonitrile] | 3.5 | 16.8 |
| NC1=N[C@@]2(CO1)c1cc(-c3cncc(N4CCC(F)(F)C4)c3)ccc1Oc1cnc(Cl)cc12 [Example 427, (5S)-3-chloro-7-(5-(3,3-difluoro-1-pyrrolidinyl)-3-pyridinyl)spiro[chromeno[2,3-c]pyridine-5,4′-[1,3]oxazol]-2′-amine] | 640 | 610 |
| NC1=N[C@@]2(CO1)c1cc(-c3cncc(N4CC[C@H](F)C4)c3)ccc1Oc1cnc(Cl)cc12 [Example 428, (5S)-3-chloro-7-(5-((3S)-3-fluoro-1-pyrrolidinyl)-3-pyridinyl)spiro[chromeno[2,3-c]pyridine-5,4′-[1,3]oxazol]-2′-amine] | 604 | 2200 |
| NC1=N[C@@]2(CO1)c1cc(-c3cncc(N4CC[C@@H](F)C4)c3)ccc1Oc1cnc(Cl)cc12 [Example 429, (5S)-3-chloro-7-(5-((3R)-3-fluoro-1-pyrrolidinyl)-3-pyridinyl)spiro[chromeno[2,3-c]pyridine-5,4′-[1,3]oxazol]-2′-amine] | 3230 | 2210 |
| COc1ccc2c(c1)C1(COC(N)=N1)c1cc(N3CCC(F)(F)C3)ncc1O2 (centres unmarked) [Example 431, 3-(3,3-difluoro-1-pyrrolidinyl)-7-methoxyspiro[chromeno[2,3-c]pyridine-5,4′-[1,3]oxazol]-2′-amine] | 1730 | 10000 |
| CC(C)(C)/C=C/c1cc2c(cn1)Oc1ccc(-c3ccc(F)nc3)cc1[C@@]21COC(N)=N1 [Example 434, (5S)-3-((1E)-3,3-dimethyl-1-buten-1-yl)-7-(6-fluoro-3-pyridinyl)spiro[chromeno[2,3-c]pyridine-5,4′-[1,3]oxazol]-2′-amine] | 3 | 31.7 |
| CC(C)N(C)c1cc2c(cn1)Oc1ccc(-c3cccnc3)cc1[C@@]21COC(N)=N1 [Example 435, (5S)-N~3~-methyl-N~3~-(1-methylethyl)-7-(3-pyridinyl)spiro[chromeno[2,3-c]pyridine-5,4′-[1,3]oxazole]-2′,3-diamine] | 5.6 | 29.6 |

The next compounds have a lower IC50 [1] than those just listed; values first:

| IC50 [1] [nM] | IC50 [2] [nM] | SMILES |
| --- | --- | --- |
| 2.3 | 4.5 | NC1=N[C@@]2(CO1)c1cc(-c3cccnc3)ccc1Oc1cnc(N3CC[C@@H](F)C3)cc12 [Example 411, (5S)-3-((3R)-3-fluoro-1-pyrrolidinyl)-7-(3-pyridinyl)spiro[chromeno[2,3-c]pyridine-5,4′-[1,3]oxazol]-2′-amine] |
| 2.1 | 23.2 | Cc1cnc(F)c(-c2ccc3c(c2)[C@@]2(COC(N)=N2)c2cc(-c4ccnc(F)c4)ncc2O3)c1 [Example 422, (5S)-7-(2-fluoro-5-methyl-3-pyridinyl)-3-(2-fluoro-4-pyridinyl)spiro[chromeno[2,3-c]pyridine-5,4′-[1,3]oxazol]-2′-amine] |
| 1.5 | 18 | N#Cc1cccc(-c2ccc3c(c2)[C@@]2(COC(N)=N2)c2cc(N4CCC(F)(F)CC4)ncc2O3)c1 [Example 424, 3-((5S)-2′-amino-3-(4,4-difluoro-1-piperidinyl)spiro[chromeno[2,3-c]pyridine-5,4′-[1,3]oxazol]-7-yl)benzonitrile] |
| 1.4 | 11.1 | CC1(C#Cc2cc3c(cn2)Oc2ccc(-c4cccnc4F)cc2[C@@]32COC(N)=N2)COC1 [Example 405, (5S)-7-(2-fluoro-3-pyridinyl)-3-((3-methyl-3-oxetanyl)ethynyl)spiro[chromeno[2,3-c]pyridine-5,4′-[1,3]oxazol]-2′-amine] |
| 1.2 | 15.1 | Cc1cnc(F)c(-c2ccc3c(c2)[C@@]2(COC(N)=N2)c2cc(N4CCC(F)(F)CC4)ncc2O3)c1 [Example 420, (5S)-3-(4,4-difluoro-1-piperidinyl)-7-(2-fluoro-5-methyl-3-pyridinyl)spiro[chromeno[2,3-c]pyridine-5,4′-[1,3]oxazol]-2′-amine] |
| 0.8 | 5.6 | NC1=N[C@@]2(CO1)c1cc(-c3cncc(F)c3)ccc1Oc1cnc(N3CCC(F)(F)C3)cc12 [Example 413, (5S)-3-(3,3-difluoro-1-pyrrolidinyl)-7-(5-fluoro-3-pyridinyl)spiro[chromeno[2,3-c]pyridine-5,4′-[1,3]oxazol]-2′-amine] |
| 0.8 | 4.8 | N#Cc1cccc(-c2ccc3c(c2)[C@@]2(COC(N)=N2)c2cc(N4CC[C@@H](F)C4)ncc2O3)c1 [Example 425, 3-((5S)-2′-amino-3-((3R)-3-fluoro-1-pyrrolidinyl)spiro[chromeno[2,3-c]pyridine-5,4′-[1,3]oxazol]-7-yl)benzonitrile] |
| 0.6 | 6.9 | NC1=N[C@@]2(CO1)c1cc(-c3cccnc3F)ccc1Oc1cnc(N3CCCC(F)(F)C3)cc12 [Example 430, (5S)-3-(3,3-difluoro-1-piperidinyl)-7-(2-fluoro-3-pyridinyl)spiro[chromeno[2,3-c]pyridine-5,4′-[1,3]oxazol]-2′-amine] |
| 0.6 | 8 | NC1=N[C@@]2(CO1)c1cc(-c3cccnc3F)ccc1Oc1cnc(N3CCC(F)CC3)cc12 [Example 436, (5S)-3-(4-fluoro-1-piperidinyl)-7-(2-fluoro-3-pyridinyl)spiro[chromeno[2,3-c]pyridine-5,4′-[1,3]oxazol]-2′-amine] |
| 0.5 | 5.3 | Cc1cnc(F)c(-c2ccc3c(c2)[C@@]2(COC(N)=N2)c2cc(N4CCC(F)(F)C4)ncc2O3)c1 [Example 421, (5S)-3-(3,3-difluoro-1-pyrrolidinyl)-7-(2-fluoro-5-methyl-3-pyridinyl)spiro[chromeno[2,3-c]pyridine-5,4′-[1,3]oxazol]-2′-amine] |
